Read-outs that look alike come from different tables or passages of the source.

Format in all cases: cell-based, human
The subject of one experiment is MX-1 (breast carcinoma). Put plainly: Cytotoxicity/growth inhibition assay, MX-1. Particulars: read-out: IC50 (MX-1). From the text:
(§1) The human cancer cell lines DLD-1 (colorectal adenocarcinoma), LNCap (prostate carcinoma), and OVCAR-3 (ovarian carcinoma) were obtained from the American Type Culture Collection, Manassas, Va., U.S.A., and HL-60 (promyeloid myelocytic leukemia), MX-1 (breast carcinoma), P388, and P388ADR from the National Cancer Institute, Bethesda, Md., U.S.A. Carboplatin, doxorubicin, and melphalan were obtained from Sigma-Aldrich Chemical Company, St. Louis, Mo., U.S.A. The CellTiter-Glo assay kit was obtained from Promega Corporation, Madison, Wis., U.S.A., and the Cellular DNA Cytometric Analysis Reagent Kit from Roche Diagnostics Corporation, Indianapolis, Ind., U.S.A. Lambda DNA was obtained from New England Biolabs, Beverly, Mass., U.S.A., and SYBR-Gold from Molecular Probes, Inc., Eugene, Oreg., U.S.A. The DNeasy Tissue Kit was obtained from Qiagen Inc., Valencia, Calif., U.S.A., and AmpliTaq Gold DNA polymerase and PCR reagents from Applied Biosystems, Foster City, Calif., U.S.A. All products were used in accordance with manufacturer's directions. All assays were conducted in triplicate wells, with dimethyl sulfoxide (DMSO) solvent control. The extent of cell growth was expressed as a percentage of the signal from the solvent control wells.
(§2) Log-phase cells were trypsinized, collected by centrifugation, and resuspended in a small volume of fresh medium, and the density of viable cells was determined following Trypan Blue staining. Cells were diluted in fresh media (3×10^3 cells/mL for MX-1, 3×10^3 cells/mL for DLD-1, and 6×10^3 cells/mL for LNCap cells), the test compounds (concentrations between 0.1 and 200 μM, dissolved in DMSO, 50 μL) added immediately after dilution to achieve a final DMSO concentration of 0.5%, then the suspensions added at 150 μL/well to 96-well plates, and incubated for several hours to allow attachment in the case of adherent cells. The cells were cultured for approximately three doubling times (3 days for MX-1 and 4 days for DLD-1 and LNCap). The cells were then collected by centrifugation, and 100 μL of the culture supernatant was replaced by the CellTiter-Glo reagent. After incubation for 15 minutes at room temperature, and the plate was read with a luminometer.

The subject of experiment [1] is DLD-1 (colorectal adenocarcinoma). The experiment is described as follows: Cytotoxicity/growth inhibition assay, DLD-1. Particulars: read-out: IC50 (DLD-1).
Excerpt: as §1, §2

For experiment [2], the system named is LNCap (prostate carcinoma). The experiment is described as follows: Cytotoxicity/growth inhibition assay, LNCap. Particulars: read-out: IC50 (LNCap).
Excerpt: as §1, §2

Setting [3] is: MX-1 cells, 3 days culture, CellTiter-Glo, 0.1-200 μM tested.
The mark [4] stands for this setting: DLD-1 cells, 4 days culture, CellTiter-Glo, 0.1-200 μM tested.
Where [5] appears, read: LNCap cells, 4 days culture, CellTiter-Glo, 0.1-200 μM tested.

What is called IC50 is the point on the concentration scale where inhibition reaches its midpoint. As for `N#Cc1ccc(S(=O)(=O)N[C@@H](CS(=O)(=O)CCOP(=O)(N(CCCl)CCCl)N(CCCl)CCCl)C(=O)N2CCN(C(=O)c3ccco3)CC2)cc1` [Compound 102A], the half-inhibitory concentration (IC50) was determined as 19.9 µM in the experiment with MX-1 (breast carcinoma) (setting [3]), 9.2 µM in experiment [1] (setting [4]) and 81.6 µM in experiment [2] (setting [5]).

Turning to `CC(C)(C)OC(=O)N[C@@H](CS(=O)(=O)CCOP(=O)(N(CCCl)CCCl)N(CCCl)CCCl)C(=O)N1CCOCC1` [Compound 83A], the values for the 50% inhibitory concentration (IC50) (in the experiment on MX-1 (breast carcinoma) (setting [3]); in experiment [1] (setting [4]); in experiment [2] (setting [5])) were 12.9 µM, 6.7 µM and 27.8 µM, respectively.

Consider `CC(C)NC(=O)[C@H](CS(=O)(=O)CCOP(=O)(N(CCCl)CCCl)N(CCCl)CCCl)NS(C)(=O)=O` [Compound 97A], for which the figures for the half-maximal inhibitory concentration (IC50) (in the experiment with MX-1 (breast carcinoma) (setting [3]); in experiment [1] (setting [4]); in experiment [2] (setting [5])) were 26.8 µM, 8.5 µM and 57.8 µM, respectively.

For the compound `CC(C)(C(N)C(=O)O)S(=O)(=O)CCOP(=O)(N(CCCl)CCCl)N(CCCl)CCCl` (stereo not drawn) [Compound 76A], the 50% inhibitory concentration (IC50) turned out to be 23.2 µM in the experiment on MX-1 (breast carcinoma) (setting [3]), 6.6 µM in experiment [1] (setting [4]) and 99.7 µM in experiment [2] (setting [5]).

On to `O=P(OCCS(=O)(=O)CCO)(N(CCCl)CCCl)N(CCCl)CCCl` [Compound 16A], for which the IC50 in the experiment on MX-1 (breast carcinoma) (setting [3]) is 13 µM; in experiment [1] (setting [4]), 9.6 µM; in experiment [2] (setting [5]), 36.4 µM.

`N[C@@H](CS(=O)(=O)CCOP(=O)(N(CCCl)CCCl)N(CCCl)CCCl)C(=O)NCCC(=O)O` [Compound 94A]: the IC50 was 22.8 µM in the experiment with MX-1 (breast carcinoma) (setting [3]), 37.5 µM in experiment [1] (setting [4]) and not below 200 µM in experiment [2] (setting [5]).

As to `O=P(OCCS(=O)(=O)CCOP(=O)(N(CCCl)CCCl)N(CCCl)CCCl)(N(CCCl)CCCl)N(CCCl)CCCl` [Compound 1C, di[2-[[bis[bis(2-chloroethyl)amino]phosphinyl]oxy]ethyl]sulfone], the IC50 turned out to be 0.3 µM with MX-1 (breast carcinoma) (Homo sapiens, MX1, 72 h); 0.3 µM in experiment [1] (Homo sapiens, DLD-1, 96 h); 1.4 µM in experiment [2] (Homo sapiens, LNCaP, 96 h).

Turning to `O=C(O)c1ccccc1S(=O)(=O)CCOP(=O)(N(CCCl)CCCl)N(CCCl)CCCl` [Compound 118A], the 50% inhibitory concentration (IC50) was 37.2 µM with MX-1 (breast carcinoma) (setting [3]), 10.9 µM in experiment [1] (setting [4]) and not below 200 µM in experiment [2] (setting [5]).

For the compound `CCCS(=O)(=O)CCOP(=O)(N(CCCl)CCCl)N(CCCl)CCCl` [Compound 3A], the IC50 in the experiment on MX-1 (breast carcinoma) (setting [3]) worked out at 11.4 µM; in experiment [1] (setting [4]) it was 9.2 µM; in experiment [2] (setting [5]), 67.6 µM.

In the case of `O=C(CS(=O)(=O)CCOP(=O)(N(CCCl)CCCl)N(CCCl)CCCl)Nc1ccc([N+](=O)[O-])c(C(F)(F)F)c1` [Compound 21A], the half-maximal inhibitory concentration (IC50) turned out to be 4.2 µM with MX-1 (breast carcinoma) (setting [3]), 2.8 µM in experiment [1] (setting [4]) and 6.3 µM in experiment [2] (setting [5]).

For `O=C(CS(=O)(=O)CCOP(=O)(N(CCCl)CCCl)N(CCCl)CCCl)Nc1ccccn1` [Compound 24A], the IC50 in the experiment on MX-1 (breast carcinoma) (setting [3]) came out at 11.2 µM; in experiment [1] (setting [4]), 5.5 µM; in experiment [2] (setting [5]), 12.1 µM.

As for `O=P(OCCS(=O)(=O)c1cccc2c(S(=O)(=O)CCOP(=O)(N(CCCl)CCCl)N(CCCl)CCCl)cccc12)(N(CCCl)CCCl)N(CCCl)CCCl` [Compound 23B, 1,5-di[[2-[[bis[bis(2-chloroethyl)amino]phosphinyl]oxy]ethyl]sulfonyl]naphthalene], the IC50 in the experiment with MX-1 (breast carcinoma) (Homo sapiens, MX1, 72 h) came out at 1.1 µM; in experiment [1] (Homo sapiens, DLD-1, 96 h), 0.7 µM; in experiment [2] (Homo sapiens, LNCaP, 96 h), 3.8 µM.

On to `O=P(OCCS(=O)(=O)Cc1ccccc1Cl)(N(CCCl)CCCl)N(CCCl)CCCl` [Compound 136A], for which the IC50 in the experiment on MX-1 (breast carcinoma) (setting [3]) was determined as 2.8 µM; in experiment [1] (setting [4]), 1.7 µM; in experiment [2] (setting [5]), 21.4 µM.

Take `N[C@@H](CS(=O)(=O)CCOP(=O)(N(CCCl)CCCl)N(CCCl)CCCl)C(=O)NCCO` [Compound 88A]: the values for the IC50 (with MX-1 (breast carcinoma) (setting [3]); in experiment [1] (setting [4]); in experiment [2] (setting [5])) were 17.9 µM, 9.5 µM and 126 µM, respectively.

On to `O=P(OCCS(=O)(=O)CCCS(=O)(=O)CCOP(=O)(N(CCCl)CCCl)N(CCCl)CCCl)(N(CCCl)CCCl)N(CCCl)CCCl` [Compound 3B], for which the figures for the half-maximal inhibitory concentration (IC50) (in the experiment on MX-1 (breast carcinoma) (setting [3]); in experiment [1] (setting [4]); in experiment [2] (setting [5])) were 7.4 µM, 4.3 µM and 14.8 µM, respectively.

As to `O=P(OCCS(=O)(=O)c1ccc(F)cc1)(N(CCCl)CCCl)N(CCCl)CCCl` [Compound 111A], the IC50 with MX-1 (breast carcinoma) (setting [3]) was found to be 1.3 µM; in experiment [1] (setting [4]) it was 0.6 µM; in experiment [2] (setting [5]), 20.1 µM.

Take `O=P(OCCS(=O)(=O)Cc1cccc(C(F)(F)F)c1)(N(CCCl)CCCl)N(CCCl)CCCl` [Compound 133A]: the half-inhibitory concentration (IC50) with MX-1 (breast carcinoma) (setting [3]) is 2.7 µM; in experiment [1] (setting [4]), 2.6 µM; in experiment [2] (setting [5]) it was 8.2 µM.

Consider `O=P(OCCS(=O)(=O)Cc1cccc[n+]1[O-])(N(CCCl)CCCl)N(CCCl)CCCl` [Compound 182A], for which the values for the IC50 (in the experiment on MX-1 (breast carcinoma) (setting [3]); in experiment [1] (setting [4]); in experiment [2] (setting [5])) were 8 µM, 7.1 µM and 22.3 µM, respectively.

In the case of `O=P(OCCS(=O)(=O)Cc1cccc(CS(=O)(=O)CCOP(=O)(N(CCCl)CCCl)N(CCCl)CCCl)c1)(N(CCCl)CCCl)N(CCCl)CCCl` [Compound 14B], the IC50 in the experiment on MX-1 (breast carcinoma) (setting [3]) is 2.3 µM; in experiment [1] (setting [4]), 3.2 µM; in experiment [2] (setting [5]), 5.7 µM.

In the case of `CC(C)(C)OC(=O)CNC(=O)CS(=O)(=O)CCOP(=O)(N(CCCl)CCCl)N(CCCl)CCCl` [Compound 38A], the concentration for half-maximal inhibition (IC50) is 8 µM in the experiment with MX-1 (breast carcinoma) (setting [3]), 7.6 µM in experiment [1] (setting [4]) and 23.3 µM in experiment [2] (setting [5]).

As to `O=P(OCCS(=O)(=O)c1cccc(C(F)(F)F)c1)(N(CCCl)CCCl)N(CCCl)CCCl` [Compound 116A], the values for the half-inhibitory concentration (IC50) (with MX-1 (breast carcinoma) (setting [3]); in experiment [1] (setting [4]); in experiment [2] (setting [5])) were 3.1 µM, 2.2 µM and 6.6 µM, respectively.

In the case of `O=P(OCCS(=O)(=O)CCCCCCCCS(=O)(=O)CCOP(=O)(N(CCCl)CCCl)N(CCCl)CCCl)(N(CCCl)CCCl)N(CCCl)CCCl` [Compound 7B], the IC50 in the experiment with MX-1 (breast carcinoma) (setting [3]) was 1.9 µM; in experiment [1] (setting [4]), 1.5 µM; in experiment [2] (setting [5]), 9.5 µM.

For `COC(=O)c1ccc(NC(=O)CS(=O)(=O)CCOP(=O)(N(CCCl)CCCl)N(CCCl)CCCl)cc1` [Compound 30A], the IC50 with MX-1 (breast carcinoma) (setting [3]) was found to be 9.1 µM; in experiment [1] (setting [4]), 6.5 µM; in experiment [2] (setting [5]) it was 13.2 µM.

As to `Cn1ccnc1S(=O)(=O)CCOP(=O)(N(CCCl)CCCl)N(CCCl)CCCl` [Compound 122A], the IC50 in the experiment on MX-1 (breast carcinoma) (setting [3]) is 4.3 µM; in experiment [1] (setting [4]), 3.1 µM; in experiment [2] (setting [5]), 23 µM.

Consider `CC(C)(C)OC(=O)NCCCC[C@H](NC(=O)CS(=O)(=O)CCOP(=O)(N(CCCl)CCCl)N(CCCl)CCCl)C(=O)OC(C)(C)C` [Compound 27A], for which the results for the IC50 (with MX-1 (breast carcinoma) (setting [3]); in experiment [1] (setting [4]); in experiment [2] (setting [5])) were 6.2 µM, 3.6 µM and 15.5 µM, respectively.

As to `O=P(OCCS(=O)(=O)Cc1ccc(Cl)cc1)(N(CCCl)CCCl)N(CCCl)CCCl` [Compound 131A], the IC50 with MX-1 (breast carcinoma) (setting [3]) amounted to 5.2 µM; in experiment [1] (setting [4]), 3.6 µM; in experiment [2] (setting [5]) it was 6.9 µM.

With `O=C(c1ccc(CS(=O)(=O)CCOP(=O)(N(CCCl)CCCl)N(CCCl)CCCl)cc1)N1CCN(c2ccccn2)CC1` [Compound 176A], the IC50 with MX-1 (breast carcinoma) (setting [3]) was 6.4 µM; in experiment [1] (setting [4]), 4.9 µM; in experiment [2] (setting [5]), 29 µM.

`COC(=O)c1ccc(CS(=O)(=O)CCOP(=O)(N(CCCl)CCCl)N(CCCl)CCCl)cc1` [Compound 140A]: the IC50 in the experiment with MX-1 (breast carcinoma) (setting [3]) stood at 11.9 µM; in experiment [1] (setting [4]) it was 5.9 µM; in experiment [2] (setting [5]), 23.3 µM.

Turning to `O=C(O)[C@H](CS(=O)(=O)CCOP(=O)(N(CCCl)CCCl)N(CCCl)CCCl)NS(=O)(=O)c1ccccc1` [Compound 103A], the IC50 stood at 18.2 µM with MX-1 (breast carcinoma) (setting [3]), 14.5 µM in experiment [1] (setting [4]) and 151 µM in experiment [2] (setting [5]).

Regarding `CN(C)C(=O)c1ccc(CS(=O)(=O)CCOP(=O)(N(CCCl)CCCl)N(CCCl)CCCl)cc1` [Compound 155A], the IC50 in the experiment on MX-1 (breast carcinoma) (setting [3]) amounted to 2.6 µM; in experiment [1] (setting [4]) it was 10.7 µM; in experiment [2] (setting [5]), 42.4 µM.
